According to PubChem BioAssay (NCI):
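GI50 marks 50% less growth. TGI denotes the concentration required for complete inhibition of growth.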

Assays:
Experiment in all cases: inhibition of tumour cell growth, NCI panel, 384-well format
OVCAR-4 ovarian = tested on: OVCAR-4 ovarian
BT-549 breast = tested on: BT-549 breast
NCI/ADR-RES ovarian = tested on: NCI/ADR-RES ovarian
MDA-MB-468 breast = tested on: MDA-MB-468 breast
SR leukemia = tested on: SR leukemia
HCC-2998 colon = tested on: HCC-2998 colon
NCI-H322M lung = tested on: NCI-H322M lung
SW-620 colon = tested on: SW-620 colon
SK-OV-3 ovarian = tested on: SK-OV-3 ovarian
HT29 colon = tested on: HT29 colon
HOP-92 NSCLC = tested on: HOP-92 NSCLC
RXF 393 renal = tested on: RXF 393 renal
A549 NSCLC = tested on: A549 NSCLC
UACC-62 melanoma = tested on: UACC-62 melanoma
SK-MEL-5 melanoma = tested on: SK-MEL-5 melanoma
IGROV1 ovarian = tested on: IGROV1 ovarian
EKVX NSCLC = tested on: EKVX NSCLC
HCT-15 colon = tested on: HCT-15 colon
TK-10 renal = tested on: TK-10 renal
CAKI-1 renal = tested on: CAKI-1 renal
COLO 205 colon = tested on: COLO 205 colon
HL-60(TB) leukemia = tested on: HL-60(TB) leukemia
SK-MEL-2 melanoma = tested on: SK-MEL-2 melanoma
ACHN renal = tested on: ACHN renal
T-47D breast = tested on: T-47D breast
MDA-MB-435 melanoma = tested on: MDA-MB-435 melanoma
RPMI-8226 leukemia = tested on: RPMI-8226 leukemia
HS 578T breast = tested on: HS 578T breast
NCI-H23 lung = tested on: NCI-H23 lung
UACC-257 melanoma = tested on: UACC-257 melanoma
SF-295 CNS = tested on: SF-295 CNS
OVCAR-8 ovarian = tested on: OVCAR-8 ovarian
MALME-3M melanoma = tested on: MALME-3M melanoma
PC-3 prostate = tested on: PC-3 prostate
SK-MEL-28 melanoma = tested on: SK-MEL-28 melanoma
NCI-H226 lung = tested on: NCI-H226 lung
OVCAR-5 ovarian = tested on: OVCAR-5 ovarian
KM12 colon = tested on: KM12 colon
MCF7 breast = tested on: MCF7 breast
SNB-75 CNS = tested on: SNB-75 CNS
OVCAR-3 ovarian = tested on: OVCAR-3 ovarian
786-0 renal = tested on: 786-0 renal
MDA-MB-231 breast = tested on: MDA-MB-231 breast
U251 glioblastoma = tested on: U251 glioblastoma
SN12C renal = tested on: SN12C renal
DU-145 prostate = tested on: DU-145 prostate
SNB-19 CNS = tested on: SNB-19 CNS
CCRF-CEM leukemia = tested on: CCRF-CEM leukemia
HOP-62 NSCLC = tested on: HOP-62 NSCLC
NCI-H460 NSCLC = tested on: NCI-H460 NSCLC
M14 melanoma = tested on: M14 melanoma
SF-268 CNS = tested on: SF-268 CNS
SF-539 CNS = tested on: SF-539 CNS
NCI-H522 lung = tested on: NCI-H522 lung
MOLT-4 leukemia = tested on: MOLT-4 leukemia
A498 renal = tested on: A498 renal
HCT-116 colon = tested on: HCT-116 colon
LOX IMVI melanoma = tested on: LOX IMVI melanoma
K-562 leukemia = tested on: K-562 leukemia
UO-31 renal = tested on: UO-31 renal

## Nc1ccn([C@@H]2S[C@H](CO)[C@@H](O)[C@@H]2F)c(=O)n1
OVCAR-4 ovarian
  GI50: > 100 µM
  TGI: > 100 µM
BT-549 breast
  GI50: 0.0226 µM
  TGI: 0.192 µM
NCI/ADR-RES ovarian
  GI50: 0.0165 µM
  TGI: 0.0481 µM
MDA-MB-468 breast
  GI50: 0.0617 µM
  TGI: 0.624 µM
SR leukemia
  GI50: 0.139 µM
  TGI: 0.271 µM
HCC-2998 colon
  GI50: 0.0152 µM
  TGI: 0.255 µM
NCI-H322M lung
  GI50: 0.179 µM
  TGI: 50.4 µM
SW-620 colon
  GI50: 0.25 µM
  TGI: > 100 µM
SK-OV-3 ovarian
  GI50: 0.0242 µM
  TGI: 0.182 µM
HT29 colon
  GI50: 0.116 µM
  TGI: 15.6 µM
HOP-92 NSCLC
  GI50: 0.0252 µM
  TGI: 9.02 µM
RXF 393 renal
  GI50: 0.0774 µM
  TGI: 0.767 µM
A549 NSCLC
  GI50: 0.0571 µM
  TGI: > 100 µM
UACC-62 melanoma
  GI50: 0.184 µM
  TGI: 0.443 µM
SK-MEL-5 melanoma
  GI50: 0.0536 µM
  TGI: 0.252 µM
IGROV1 ovarian
  GI50: 0.31 µM
  TGI: 57.5 µM
EKVX NSCLC
  GI50: 0.434 µM
  TGI: > 100 µM
HCT-15 colon
  GI50: 0.0557 µM
  TGI: > 100 µM
TK-10 renal
  GI50: > 100 µM
  TGI: > 100 µM
CAKI-1 renal
  GI50: 0.0373 µM
  TGI: 0.797 µM
COLO 205 colon
  GI50: 0.0493 µM
  TGI: 0.277 µM
HL-60(TB) leukemia
  GI50: 0.0203 µM
  TGI: 0.039 µM
SK-MEL-2 melanoma
  GI50: 0.0565 µM
  TGI: 0.201 µM
ACHN renal
  GI50: 0.0238 µM
  TGI: 0.0566 µM
T-47D breast
  GI50: 0.31 µM
  TGI: 35.5 µM
MDA-MB-435 melanoma
  GI50: 0.383 µM
  TGI: > 100 µM
RPMI-8226 leukemia
  GI50: 0.194 µM
  TGI: 0.449 µM
HS 578T breast
  GI50: 0.0532 µM
  TGI: > 100 µM
NCI-H23 lung
  GI50: 0.0237 µM
  TGI: 0.0645 µM
UACC-257 melanoma
  GI50: 0.318 µM
  TGI: 7.78 µM
SF-295 CNS
  GI50: 0.143 µM
  TGI: 0.46 µM
OVCAR-8 ovarian
  GI50: 0.0134 µM
  TGI: 0.0352 µM
MALME-3M melanoma
  GI50: < 0.01 µM
  TGI: 0.316 µM
PC-3 prostate
  GI50: 0.0559 µM
  TGI: > 100 µM
SK-MEL-28 melanoma
  GI50: 0.0743 µM
  TGI: 0.672 µM
NCI-H226 lung
  GI50: 0.0849 µM
  TGI: 0.32 µM
OVCAR-5 ovarian
  GI50: 0.15 µM
KM12 colon
  GI50: 0.0862 µM
  TGI: > 100 µM
MCF7 breast
  GI50: 0.0909 µM
  TGI: > 100 µM
SNB-75 CNS
  GI50: 0.054 µM
  TGI: 2.68 µM
OVCAR-3 ovarian
  GI50: 0.0473 µM
  TGI: 6.89 µM
786-0 renal
  GI50: 0.0442 µM
  TGI: 0.319 µM
MDA-MB-231 breast
  GI50: 0.0203 µM
  TGI: 0.6 µM
U251 glioblastoma
  GI50: 0.172 µM
  TGI: 0.572 µM
SN12C renal
  GI50: 0.0238 µM
  TGI: 0.0695 µM
DU-145 prostate
  GI50: 0.0243 µM
  TGI: 0.0712 µM
SNB-19 CNS
  GI50: 0.0225 µM
  TGI: 0.387 µM
CCRF-CEM leukemia
  GI50: < 0.01 µM
  TGI: 0.0122 µM
HOP-62 NSCLC
  GI50: 0.0143 µM
  TGI: 0.0548 µM
NCI-H460 NSCLC
  GI50: 0.024 µM
  TGI: 0.091 µM
M14 melanoma
  GI50: 0.0387 µM
  TGI: 0.163 µM
SF-268 CNS
  GI50: 0.14 µM
  TGI: 0.349 µM
SF-539 CNS
  GI50: 0.138 µM
  TGI: 0.352 µM
NCI-H522 lung
  GI50: 0.0116 µM
  TGI: 0.095 µM
MOLT-4 leukemia
  GI50: < 0.01 µM

## CC/C(=C(/c1ccc(/C=C/C(=O)O)cc1)c1ccc2[nH]ncc2c1)c1ccc(F)cc1Cl
OVCAR-4 ovarian
  GI50: 14.2 µM
  TGI: 28 µM
BT-549 breast
  GI50: 14.7 µM
  TGI: 27.9 µM
NCI/ADR-RES ovarian
  GI50: 14.1 µM
  TGI: 27.7 µM
A498 renal
  GI50: 10.9 µM
  TGI: 22.9 µM
MDA-MB-468 breast
  GI50: 11.5 µM
  TGI: 23.8 µM
SR leukemia
  GI50: 3 µM
  TGI: 6.35 µM
HCC-2998 colon
  GI50: 18.3 µM
  TGI: 32.3 µM
HCT-116 colon
  GI50: 15.3 µM
  TGI: 29.4 µM
NCI-H322M lung
  GI50: 14.2 µM
  TGI: 27.4 µM
SW-620 colon
  GI50: 18.1 µM
  TGI: 32.2 µM
SK-OV-3 ovarian
  GI50: 18 µM
  TGI: 32.5 µM
HT29 colon
  GI50: 16.7 µM
  TGI: 30.5 µM
HOP-92 NSCLC
  GI50: 14.2 µM
  TGI: 27.6 µM
RXF 393 renal
  GI50: 8.35 µM
  TGI: 21 µM
A549 NSCLC
  GI50: 10.4 µM
  TGI: 22.3 µM
UACC-62 melanoma
  GI50: 13 µM
  TGI: 25.8 µM
LOX IMVI melanoma
  GI50: 10.5 µM
  TGI: 22.4 µM
K-562 leukemia
  GI50: 14.5 µM
  TGI: 29.5 µM
SK-MEL-5 melanoma
  GI50: 12.6 µM
  TGI: 25.2 µM
IGROV1 ovarian
  GI50: 15.2 µM
  TGI: 29 µM
EKVX NSCLC
  GI50: 14.7 µM
  TGI: 28.2 µM
HCT-15 colon
  GI50: 12.4 µM
  TGI: 25.2 µM
UO-31 renal
  GI50: 10.1 µM
  TGI: 21.8 µM
TK-10 renal
  GI50: 16.3 µM
  TGI: 31.2 µM
CAKI-1 renal
  GI50: 16.6 µM
  TGI: 30.4 µM
COLO 205 colon
  GI50: 15.1 µM
  TGI: 28.7 µM
HL-60(TB) leukemia
  GI50: 6.03 µM
  TGI: 18.5 µM
ACHN renal
  GI50: 13.7 µM
  TGI: 26.6 µM
T-47D breast
  GI50: 11.9 µM
  TGI: 25.2 µM
MDA-MB-435 melanoma
  GI50: 2.71 µM
  TGI: 7.22 µM
RPMI-8226 leukemia
  GI50: 5.4 µM
  TGI: 16.9 µM
HS 578T breast
  GI50: 15.6 µM
  TGI: 29 µM
NCI-H23 lung
  GI50: 14.7 µM
  TGI: 27.9 µM
UACC-257 melanoma
  GI50: 15.1 µM
  TGI: 29 µM
SF-295 CNS
  GI50: 4.65 µM
  TGI: 17 µM
OVCAR-8 ovarian
  GI50: 15.3 µM
  TGI: 28.7 µM
MALME-3M melanoma
  GI50: 14.8 µM
  TGI: 28 µM
PC-3 prostate
  GI50: 13.7 µM
  TGI: 26.7 µM
SK-MEL-28 melanoma
  GI50: 12.5 µM
  TGI: 26.1 µM
NCI-H226 lung
  GI50: 18.1 µM
  TGI: 32.1 µM
KM12 colon
  GI50: 14.4 µM
  TGI: 27.5 µM
MCF7 breast
  TGI: 15.1 µM
SNB-75 CNS
  GI50: 13.7 µM
  TGI: 26.6 µM
OVCAR-3 ovarian
  GI50: 14.3 µM
  TGI: 27.6 µM
786-0 renal
  GI50: 12.7 µM
  TGI: 25.9 µM
MDA-MB-231 breast
  GI50: 15.1 µM
  TGI: 28.4 µM
U251 glioblastoma
  GI50: 11.8 µM
  TGI: 24.2 µM
SN12C renal
  GI50: 17.1 µM
  TGI: 31.6 µM
DU-145 prostate
  GI50: 15.9 µM
  TGI: 29.4 µM
SNB-19 CNS
  GI50: 14.4 µM
  TGI: 27.5 µM
CCRF-CEM leukemia
  GI50: 10.5 µM
  TGI: 22.3 µM
HOP-62 NSCLC
  GI50: 9.36 µM
  TGI: 21.4 µM
NCI-H460 NSCLC
  GI50: 16.6 µM
  TGI: 30.5 µM
M14 melanoma
  GI50: 7.57 µM
  TGI: 20.5 µM
SF-268 CNS
  GI50: 15.6 µM
  TGI: 29 µM
SF-539 CNS
  GI50: 14.3 µM
  TGI: 27.4 µM
NCI-H522 lung
  GI50: 14.6 µM
  TGI: 27.8 µM
MOLT-4 leukemia
  GI50: 12.9 µM
  TGI: 25.9 µM
